Assays:
adenosine A2B receptor = adenosine A2B receptor (Homo sapiens (Human), UniProt P29275); assay: Adenosine receptor activity assay (Table 1), A2B activity; assay type: biochemical; conditions: for IC50: read-out: Ave A2B cAMP IC50
adenosine A2A receptor = adenosine A2A receptor (Homo sapiens (Human), UniProt P29274); assay: Adenosine receptor activity assay (Table 1), A2A activity; assay type: biochemical; conditions: read-out: Ave A2A cAMP IC50
[1] = A2A activity to the A2B activity, A2A/A2B
[2] = A2A activity to A2B activity (A2A/A2B)

Sequence of adenosine A2B receptor (P29275 whole entry): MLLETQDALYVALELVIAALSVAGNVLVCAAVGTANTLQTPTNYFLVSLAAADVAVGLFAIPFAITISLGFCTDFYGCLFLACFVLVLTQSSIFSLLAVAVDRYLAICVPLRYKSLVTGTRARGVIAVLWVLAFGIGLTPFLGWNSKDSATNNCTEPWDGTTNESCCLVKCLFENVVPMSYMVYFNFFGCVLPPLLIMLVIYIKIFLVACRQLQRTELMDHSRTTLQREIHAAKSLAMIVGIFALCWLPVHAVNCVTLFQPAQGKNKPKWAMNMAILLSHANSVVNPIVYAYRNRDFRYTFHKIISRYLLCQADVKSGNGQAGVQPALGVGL
Sequence of adenosine A2A receptor (P29274 whole entry): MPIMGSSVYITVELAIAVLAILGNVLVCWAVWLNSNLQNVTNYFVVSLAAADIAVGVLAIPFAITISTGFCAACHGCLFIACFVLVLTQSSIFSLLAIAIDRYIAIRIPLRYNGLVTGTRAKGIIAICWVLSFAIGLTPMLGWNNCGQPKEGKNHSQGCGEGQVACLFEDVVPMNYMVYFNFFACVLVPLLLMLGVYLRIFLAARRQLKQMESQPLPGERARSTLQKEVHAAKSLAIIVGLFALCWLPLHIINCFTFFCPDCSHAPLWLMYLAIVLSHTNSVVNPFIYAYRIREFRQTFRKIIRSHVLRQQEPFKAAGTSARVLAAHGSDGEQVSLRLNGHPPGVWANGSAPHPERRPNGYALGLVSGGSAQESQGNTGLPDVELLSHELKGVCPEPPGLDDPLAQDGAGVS

Row | Structure (SMILES) | Ratio (adenosine A2B receptor; [1]) | IC50 (adenosine A2B receptor) [µM] | IC50 (adenosine A2A receptor) [µM] | Ratio (adenosine A2B receptor; [2])
1 | CC(C)C(=O)N1CCN(C(=O)c2nc(N[C@@H](C)c3cncc(F)c3)nc3ccsc23)C1 [Example Z564, (S)-1-(3-(2-((1-(5-Fluoropyridin-3-yl)ethyl)amino)thieno[3,2-d]pyrimidine-4-carbonyl)imidazolidin-1-yl)-2-methylpropan-1-one] | 18.15 | 0.1 to 0.5 | > 0.5 | –
2 | C[C@H](Nc1nc(C(=O)N(C)CCc2ccc(O)cc2)c2sccc2n1)c1cncc(F)c1 [Example Z396, (S)-2-((1-(5-Fluoropyridin-3-yl)ethyl)amino)-N-(4-hydroxyphenethyl)-N-methylthieno[3,2-d]pyrimidine-4-carboxamide] | – | > 0.5 | > 0.5 | 6.83
3 | C[C@H](Nc1nc(C(=O)N2CCC(C(=O)O)C2)c2sccc2n1)c1cncc(F)c1 (stereo partly drawn) [Example Z379, 1-(2-(((S)-1-(5-Fluoropyridin-3-yl)ethyl)amino)thieno[3,2-d]pyrimidine-4-carbonyl)pyrrolidine-3-carboxylic acid] | – | 0.1 to 0.5 | > 0.5 | 68.03
4 | NC(=O)c1cncc(CNc2nc(C(=O)N3CCCC3)c3sccc3n2)c1 [Example Z142, 5-(((4-(Pyrrolidine-1-carbonyl)thieno[3,2-d]pyrimidin-2-yl)amino)methyl)nicotinamide] | – | > 0.5 | > 0.5 | 2.76
5 | COc1cncc(CNc2nc(C(=O)N3CC(C)C3)c3sccc3n2)c1 [Example Z117, (2-(((5-Methoxypyridin-3-yl)methyl)amino)thieno[3,2-d]pyrimidin-4-yl)(3-methylazetidin-1-yl)methanone] | – | 0.05 to 0.1 | > 0.5 | 10.87
6 | Cc1cc2nc(N[C@@H](C)c3cccnc3)nc(C(=O)NCC3CCNCC3)c2s1 [Example Z377, (S)-6-Methyl-N-(piperidin-4-ylmethyl)-2-((1-(pyridin-3-yl)ethyl)amino)thieno[3,2-d]pyrimidine-4-carboxamide] | – | 0.1 to 0.5 | > 0.5 | 39.59
7 | O=C(NCc1cncc(F)c1)c1nc(NCc2cncc(F)c2)nc2ccsc12 [Example Z15, N-((5-Fluoropyridin-3-yl)methyl)-2-(((5-fluoropyridin-3-yl)methyl)amino)thieno[3,2-d]pyrimidine-4-carboxamide] | – | 0.1 to 0.5 | > 0.5 | 9.43
8 | COc1cncc(CNc2nc(C(=O)N3CCCC3)c3sccc3n2)c1 [Example Z114, (2-(((5-Methoxypyridin-3-yl)methyl)amino)thieno[3,2-d]pyrimidin-4-yl)(pyrrolidin-1-yl)methanone] | – | 0.1 to 0.5 | > 0.5 | 5.15
9 | CCO[C@H]1CCN(C(=O)c2nc(N[C@@H](C)c3ccccn3)nc3ccsc23)C1 [Example Z442, ((S)-3-Ethoxypyrrolidin-1-yl)(2-(((S)-1-(pyridin-2-yl)ethyl)amino)thieno[3,2-d]pyrimidin-4-yl)methanone] | 2.19 | 0.1 to 0.5 | 0.1 to 0.5 | –
10 | C[C@H](Nc1nc(C(=O)NCC2CCN(Cc3ccccc3)CC2)c2sccc2n1)c1cccnc1 [Example Z27, (S)—N-((1-benzylpiperidin-4-yl)methyl)-2-((1-(pyridin-3-yl)ethyl)amino)thieno[3,2-d]pyrimidine-4-carboxamide] | – | 0.05 to 0.1 | 0.1 to 0.5 | 1.97
11 | CC(=O)N[C@H]1CCN(C(=O)c2nc(NCc3cncc(F)c3)nc3ccsc23)C1 [Example Z330, (S)—N-(1-(2-(((5-Fluoropyridin-3-yl)methyl)amino)thieno[3,2-d]pyrimidine-4-carbonyl)pyrrolidin-3-yl)acetamide] | – | < 0.01 | > 0.5 | 196.86
12 | C[C@H](Nc1nc(C(=O)NCc2cncc(F)c2)c2sccc2n1)c1cccnc1 [Example Z20, (S)—N-((5-Fluoropyridin-3-yl)methyl)-2-((1-(pyridin-3-yl)ethyl)amino)thieno[3,2-d]pyrimidine-4-carboxamide] | – | 0.1 to 0.5 | 0.1 to 0.5 | 0.62
13 | O=C(c1nc(NCc2ccccc2)nc2ccsc12)N1CCCC1 [Example Z39, (2-(Benzylamino)thieno[3,2-d]pyrimidin-4-yl)(pyrrolidin-1-yl)methanone] | – | 0.1 to 0.5 | 0.1 to 0.5 | 1.22
14 | O=C(c1nc(NCc2cccc(Cl)c2)nc2ccsc12)N1CCCC1 [Example Z120, (2-((3-Chlorobenzyl)amino)thieno[3,2-d]pyrimidin-4-yl)(pyrrolidin-1-yl)methanone] | – | 0.01 to 0.05 | 0.1 to 0.5 | 13.39
15 | O=C(c1nc(NCc2ccc(C(F)(F)F)nc2)nc2ccsc12)N1CCCC1 [Example Z76, Pyrrolidin-1-yl(2-(((6-(trifluoromethyl)pyridin-3-yl)methyl)amino)thieno[3,2-d]pyrimidin-4-yl)methanone] | – | > 0.5 | 0.1 to 0.5 | 0.22
16 | C[C@H](Nc1nc(C(=O)NCCN2CCCC2)c2sccc2n1)c1ccccn1 [Example Z356, (S)-2-((1-(Pyridin-2-yl)ethyl)amino)-N-(2-(pyrrolidin-1-yl)ethyl)thieno[3,2-d]pyrimidine-4-carboxamide] | – | > 0.5 | > 0.5 | 3.31
17 | C[C@H](Nc1nc(C(=O)NCC2CCOCC2)c2sccc2n1)c1ccccn1 [Example Z227, (S)-2-((1-(Pyridin-2-yl)ethyl)amino)-N-((tetrahydro-2H-pyran-4-yl)methyl)thieno[3,2-d]pyrimidine-4-carboxamide] | – | 0.01 to 0.05 | 0.1 to 0.5 | 4.59
18 | CCN(CC)C(=O)c1nc(N[C@@H](C)c2cccnc2)nc2ccsc12 [Example Z41, (S)—N,N-Diethyl-2-((1-(pyridin-3-yl)ethyl)amino)thieno[3,2-d]pyrimidine-4-carboxamide] | – | > 0.5 | > 0.5 | 1.00
19 | C[C@H](Nc1nc(C(=O)NCc2cncc(C#N)c2)c2sccc2n1)c1cccnc1 [Example Z104, (S)—N-((5-Cyanopyridin-3-yl)methyl)-2-((1-(pyridin-3-yl)ethyl)amino)thieno[3,2-d]pyrimidine-4-carboxamide] | – | > 0.5 | 0.1 to 0.5 | 0.50
20 | CO[C@H]1C[C@@H](NC(=O)c2nc(N[C@@H](C)c3cccnc3)nc3ccsc23)C1 [Example Z296, N-((1s,3R)-3-Methoxycyclobutyl)-2-(((S)-1-(pyridin-3-yl)ethyl)amino)thieno[3,2-d]pyrimidine-4-carboxamide] | – | 0.1 to 0.5 | 0.1 to 0.5 | 1.07
21 | CC(=O)N[C@H]1CCN(C(=O)c2nc(N[C@@H](C)c3ccccn3)nc3ccsc23)C1 [Example Z324, N—((S)-1-(2-(((S)-1-(Pyridin-2-yl)ethyl)amino)thieno[3,2-d]pyrimidine-4-carbonyl)pyrrolidin-3-yl)acetamide] | – | 0.01 to 0.05 | > 0.5 | 28.39
22 | COC[C@@H](Nc1nc(C(=O)NC[C@@H](C)O)c2sccc2n1)c1cccnc1 [Example Z321, N—((R)-2-Hydroxypropyl)-2-(((S)-2-methoxy-1-(pyridin-3-yl)ethyl)amino)thieno[3,2-d]pyrimidine-4-carboxamide] | – | 0.05 to 0.1 | 0.1 to 0.5 | 3.66
23 | C[C@H](Nc1nc(C(=O)N[C@H](C)c2cccnc2)c2sccc2n1)c1cccnc1 [Example Z30, N—((R)-1-(Pyridin-3-yl)ethyl)-2-(((S)-1-(pyridin-3-yl)ethyl)amino)thieno[3,2-d]pyrimidine-4-carboxamide] | – | 0.1 to 0.5 | > 0.5 | 8.34
24 | CC(=O)N1CC(CCNC(=O)c2nc(N[C@@H](C)c3cncc(F)c3)nc3ccsc23)C1 [Example Z539, (S)—N-(2-(1-Acetylazetidin-3-yl)ethyl)-2-((1-(5-fluoropyridin-3-yl)ethyl)amino)thieno[3,2-d]pyrimidine-4-carboxamide] | – | 0.01 to 0.05 | 0.1 to 0.5 | –
25 | COc1ccc(CNC(=O)c2nc(NCc3ccc(OC)nc3)nc3ccsc23)cn1 [Example Z12, N-((6-Methoxypyridin-3-yl)methyl)-2-(((6-methoxypyridin-3-yl)methyl)amino)thieno[3,2-d]pyrimidine-4-carboxamide] | – | > 0.5 | 0.05 to 0.1 | 0.15
26 | C[C@H](Nc1nc(C(=O)N2CCC[C@@H]2C)c2sccc2n1)c1cccnc1 [Example Z36, ((S)-2-Methylpyrrolidin-1-yl)(2-(((S)-1-(pyridin-3-yl)ethyl)amino)thieno[3,2-d]pyrimidin-4-yl)methanone] | – | 0.1 to 0.5 | 0.1 to 0.5 | 1.55
27 | CO[C@H]1CCN(C(=O)c2nc(N[C@@H](C)c3cccnc3)nc3cc(C)sc23)C1 [Example Z350, ((S)-3-Methoxypyrrolidin-1-yl)(6-methyl-2-(((S)-1-(pyridin-3-yl)ethyl)amino)thieno[3,2-d]pyrimidin-4-yl)methanone] | – | 0.01 to 0.05 | 0.1 to 0.5 | 4.80
28 | COc1ccc(CNC(=O)c2nc(NCc3cncc(C)c3)nc3ccsc23)cn1 [Example Z57, N-((6-Methoxypyridin-3-yl)methyl)-2-(((5-methylpyridin-3-yl)methyl)amino)thieno[3,2-d]pyrimidine-4-carboxamide] | – | 0.1 to 0.5 | 0.1 to 0.5 | 1.41
29 | C[C@H](Nc1nc(C(=O)NCCc2ccc(N)cc2)c2sccc2n1)c1cncc(F)c1 [Example Z493, (S)—N-(4-Aminophenethyl)-2-((1-(5-fluoropyridin-3-yl)ethyl)amino)thieno[3,2-d]pyrimidine-4-carboxamide] | 17.90 | 0.05 to 0.1 | > 0.5 | –
30 | COC[C@H]1CCN(C(=O)c2nc(N[C@@H](C)c3ccccn3)nc3ccsc23)C1 [Example Z470, ((S)-3-(Methoxymethyl)pyrrolidin-1-yl)(2-(((S)-1-(pyridin-2-yl)ethyl)amino)thieno[3,2-d]pyrimidin-4-yl)methanone] | 1.07 | 0.05 to 0.1 | 0.1 to 0.5 | –

Reference: patent US11254686B1 (Corvus Pharmaceuticals, Inc., priority 2017, dated 2022)
